Test results from ChEMBL document CHEMBL1201862, “PubChem BioAssay data set” (2004).
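Tested at 5 concentrations; 48 h exposure; 96-well plates; endpoints linearly interpolated, else capped at highest concentration. GI50 = concentration required for 50% inhibition of growth.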 Activity calls are given as the source filed them. Rule as the data show it: active = GI50 up to about 1.1 µM and inactive = higher.

What was measured:
Experiment in all cases: NCI anticancer screen, dose series, 48 h
NCI-H226 = system: NCI-H226
NCI-H460 = system: NCI-H460
A498 = system: A498
RXF 393 = system: RXF 393
OVCAR-3 = system: OVCAR-3
HL-60 = system: HL-60
NCI-H23 = system: NCI-H23
SNB-75 = system: SNB-75
A549 = system: A549
TK-10 = system: TK-10
SF-295 = system: SF-295
UO-31 = system: UO-31
U-251 = system: U-251
HOP-92 = system: HOP-92
COLO 205 = system: COLO 205
SR = system: SR
K562 = system: K562
OVCAR-5 = system: OVCAR-5
NCI/ADR-RES = system: NCI/ADR-RES
MDA-MB-231 = system: MDA-MB-231

Row | Compound | GI50 (NCI-H226) | GI50 (NCI-H460) | GI50 (A498) | GI50 (RXF 393) | GI50 (OVCAR-3) | GI50 (HL-60) | GI50 (NCI-H23) | GI50 (SNB-75) | GI50 (A549) | GI50 (TK-10) | GI50 (SF-295) | GI50 (UO-31) | GI50 (U-251) | GI50 (HOP-92) | GI50 (COLO 205) | GI50 (SR) | GI50 (K562) | GI50 (OVCAR-5) | GI50 (NCI/ADR-RES) | GI50 (MDA-MB-231)
1 | CSC1=NN(C(C)=O)C(C(OC(C)=O)C(OC(C)=O)C(OC(C)=O)C(COC(C)=O)OC(C)=O)S1 (stereo unspecified) | > 100 µM (inactive) | > 100 µM (inactive) | > 100 µM (inactive) | > 100 µM (inactive) | > 100 µM (inactive) | > 100 µM (inactive) | > 100 µM (inactive) | > 100 µM (inactive) | > 100 µM (inactive) | > 100 µM (inactive) | > 100 µM (inactive) | 11 µM (inactive) | > 100 µM (inactive) | > 100 µM (inactive) | > 100 µM (inactive) | > 100 µM (inactive) | > 100 µM (inactive) | > 100 µM (inactive) | > 100 µM (inactive) | > 100 µM (inactive)
2 | CC(C)(C)c1cc(C(=O)/C=C/c2c(Cl)cccc2Cl)cc(C(C)(C)C)c1O | 17.8 µM (inactive) | 7.46 µM (inactive) | 27.2 µM (inactive) | 2.05 µM (inactive) | 3.79 µM (inactive) | 3.7 µM (inactive) | 16.1 µM (inactive) | 4.93 µM (inactive) | 18.8 µM (inactive) | 19.4 µM (inactive) | 11.5 µM (inactive) | 14.9 µM (inactive) | 11.9 µM (inactive) | 25.8 µM (inactive) | 15.9 µM (inactive) | 3.86 µM (inactive) | 18.9 µM (inactive) | 19.2 µM (inactive) | 20.1 µM (inactive) | 10.9 µM (inactive)
3 | O=C(/C=C/c1ccccc1O)CC(=O)/C=C/c1ccccc1O | > 10 µM (inactive) | 7.45 µM (inactive) | 23.3 µM (inactive) | 3.25 µM (inactive) | 3.82 µM (inactive) | 3.24 µM (inactive) | 2.81 µM (inactive) | > 46.2 µM (inactive) | 7.14 µM (inactive) | 23.7 µM (inactive) | 6.53 µM (inactive) | 4.73 µM (inactive) | 4.26 µM (inactive) | 5.81 µM (inactive) | 3.95 µM (inactive) | 2.67 µM (inactive) | 3.82 µM (inactive) | > 10 µM (inactive) | 5.01 µM (inactive) | > 10 µM (inactive)
4 | CC(=O)O[C@H]1CC[C@@]2(C)C(=CC[C@@H]3[C@@H]2CC[C@]2(C)Nc4c(cnn4S(C)(=O)=O)C[C@@H]32)C1 | 35.2 µM (inactive) | 44.4 µM (inactive) | > 100 µM (inactive) | 18.1 µM (inactive) | 48 µM (inactive) | 23.4 µM (inactive) | 42.5 µM (inactive) | 69.3 µM (inactive) |  |  | 62.2 µM (inactive) | 76.7 µM (inactive) | 76.7 µM (inactive) | 71.3 µM (inactive) | 69 µM (inactive) | 40.4 µM (inactive) | 19.1 µM (inactive) | 38.2 µM (inactive) | > 100 µM (inactive) | > 100 µM (inactive)
5 | COc1cc(/C=C/c2cc(=O)cc(/C=C/c3ccc(O)c(OC)c3)o2)ccc1O | 29.3 µM (inactive) | 44 µM (inactive) | > 100 µM (inactive) | 15.9 µM (inactive) | 76.4 µM (inactive) | 15.7 µM (inactive) | 59.7 µM (inactive) | 29.9 µM (inactive) | 64.1 µM (inactive) | > 75.5 µM (inactive) | 32.4 µM (inactive) | > 100 µM (inactive) | 25.5 µM (inactive) | 17.9 µM (inactive) | > 100 µM (inactive) | > 23.6 µM (inactive) | > 21 µM (inactive) | > 100 µM (inactive) | 98.4 µM (inactive) | 26.4 µM (inactive)
6 | CCOP(=O)(O)C(Nc1ccc(/N=N/c2ccccc2)cc1)c1ccc(C(Nc2ccc(/N=N/c3ccccc3)cc2)P(=O)(O)OCC)cc1 (stereo unspecified) | 40.3 µM (inactive) | 22 µM (inactive) | 32 µM (inactive) | 25.2 µM (inactive) | 75.7 µM (inactive) | 17.1 µM (inactive) | 29.2 µM (inactive) | 14.7 µM (inactive) | 29.7 µM (inactive) | 36.2 µM (inactive) | 18.9 µM (inactive) | 67.1 µM (inactive) | 18.1 µM (inactive) | 22.1 µM (inactive) | 15.3 µM (inactive) | 19.8 µM (inactive) | 19.6 µM (inactive) | 22.4 µM (inactive) | 27.4 µM (inactive) | 30 µM (inactive)
7 | C[C@@H]1C[C@H]2CC[C@H](O2)[C@H](C)C(=O)O[C@@H](C)C[C@@H]2CC[C@@H](O2)[C@@H](C)C(=O)O[C@H](C)C[C@H]2CC[C@H](O2)[C@H](C)C(=O)O[C@@H](C)C[C@@H]2CC[C@@H](O2)[C@@H](C)C(=O)O1 | 0.436 µM (active) | 0.426 µM (active) | 0.859 µM (active) | 0.356 µM (active) | 0.073 µM (active) | 0.157 µM (active) | 0.224 µM (active) | 0.338 µM (active) | 0.344 µM (active) | 0.425 µM (active) | 0.242 µM (active) | 0.374 µM (active) | 0.366 µM (active) | 0.183 µM (active) | 0.155 µM (active) | 0.495 µM (active) | 0.228 µM (active) | 0.568 µM (active) | 2.17 µM (inactive) | 0.345 µM (active)
8 | CC[C@@]1(O)C(=O)OCc2c1cc1n(c2=O)Cc2c-1nc1ccccc1c2CC[Si](C)(C)C [COSITECAN] | < 0.01 µM (active) | < 0.01 µM (active) | < 0.01 µM (active) | < 0.01 µM (active) | 0.0604 µM (active) | < 0.01 µM (active) | < 0.01 µM (active) | < 0.01 µM (active) | < 0.01 µM (active) | 0.131 µM (active) | < 0.01 µM (active) | < 0.01 µM (active) | < 0.01 µM (active) | 0.115 µM (active) | < 0.0383 µM (active) | < 0.01 µM (active) | 0.0101 µM (active) | 0.0601 µM (active) | < 0.01 µM (active) | 0.417 µM (active)
9 | COc1ccc2c(c1OC)C(=O)N1C2=Cc2c(cc3c(c2OC)OCO3)CC1N(C)C (stereo unspecified) | 40.4 µM (inactive) | 28.8 µM (inactive) | 47.8 µM (inactive) | 54.5 µM (inactive) | 40.6 µM (inactive) | 24.9 µM (inactive) | 34 µM (inactive) | 29.8 µM (inactive) | 47.4 µM (inactive) | 96.6 µM (inactive) | 50.8 µM (inactive) | 29.9 µM (inactive) | 49.4 µM (inactive) | 30.3 µM (inactive) | 58.2 µM (inactive) | 28.9 µM (inactive) | 30.3 µM (inactive) | > 100 µM (inactive) | 26.4 µM (inactive) | 81.1 µM (inactive)
10 | COc1nc2ncc([C@@H](OC(C)=O)[C@@H](COC(C)=O)OC(C)=O)nc2c(=O)n1C | > 100 µM (inactive) | > 100 µM (inactive) | > 100 µM (inactive) | > 100 µM (inactive) | > 100 µM (inactive) | 24.3 µM (inactive) |  | > 100 µM (inactive) | > 100 µM (inactive) | > 100 µM (inactive) | > 100 µM (inactive) | > 100 µM (inactive) | > 100 µM (inactive) | > 100 µM (inactive) | > 100 µM (inactive) | > 100 µM (inactive) | > 100 µM (inactive) | > 100 µM (inactive) | > 100 µM (inactive) | > 100 µM (inactive)
11 | COC(=O)C1c2c(c3ccccc3n2C(=O)OC)CCN2CCC1C(S(=O)(=O)c1ccccc1)C2=O (stereo unspecified) | 24 µM (inactive) | > 100 µM (inactive) | > 100 µM (inactive) | 89.1 µM (inactive) | > 100 µM (inactive) | 90.6 µM (inactive) | > 100 µM (inactive) | > 100 µM (inactive) | > 100 µM (inactive) | > 100 µM (inactive) | > 100 µM (inactive) | > 100 µM (inactive) | > 100 µM (inactive) | > 100 µM (inactive) | > 100 µM (inactive) | 87.7 µM (inactive) | > 100 µM (inactive) | > 100 µM (inactive) | > 100 µM (inactive) | > 100 µM (inactive)
12 | Cc1n[nH]c(=O)n1-c1cccnc1 | > 100 µM (inactive) | > 100 µM (inactive) | > 100 µM (inactive) | > 100 µM (inactive) | > 100 µM (inactive) | > 100 µM (inactive) | > 100 µM (inactive) | > 100 µM (inactive) | > 100 µM (inactive) | > 100 µM (inactive) | > 100 µM (inactive) | > 100 µM (inactive) | > 100 µM (inactive) | > 100 µM (inactive) | > 100 µM (inactive) | > 100 µM (inactive) | > 100 µM (inactive) | > 100 µM (inactive) | > 100 µM (inactive) | > 100 µM (inactive)
13 | CC(NC(=O)C(NC(=O)C(NC(=O)C(F)(F)F)C(C)C)C(C)C)C(=O)Oc1c(Cl)c(Cl)c(Cl)c(Cl)c1Cl (stereo unspecified) | 94.6 µM (inactive) | > 100 µM (inactive) | > 100 µM (inactive) | > 100 µM (inactive) | 92.5 µM (inactive) | > 100 µM (inactive) | > 100 µM (inactive) | > 100 µM (inactive) | > 100 µM (inactive) | > 100 µM (inactive) |  | 86.7 µM (inactive) | > 100 µM (inactive) | 32.5 µM (inactive) | > 100 µM (inactive) | > 100 µM (inactive) | > 100 µM (inactive) | > 100 µM (inactive) | > 100 µM (inactive) | > 100 µM (inactive)
